Patent US4327097A, “Novel penicillins” (Toyama Chemical Co., Ltd., priority 1974, dated 1982)
In brackets after ≈: the same amount, converted by molar mass.

Legend:
Escherichia coli = experiment: MIC against clinical isolates; assay type: cell-based; settings: Table 5-2, clinical isolate; unit assumed
Pseudomonas aeruginosa = experiment: MIC against clinical isolates; assay type: cell-based; settings: unit assumed; for MIC Pseudomonas neruginosa S-1 / MIC Pseudomonas neruginosa S-2 / MIC Pseudomonas neruginosa S-3 / MIC Pseudomonas neruginosa S-4: Table 5-4, clinical isolate
Proteus vulgaris = experiment: MIC against clinical isolates; assay type: cell-based; settings: Table 5-6, clinical isolate; unit assumed
Salmonella typhi-murium = experiment: MIC against clinical isolates; assay type: cell-based; settings: Table 5-5, clinical isolate; unit assumed
Proteus morganii = experiment: MIC against clinical isolates; assay type: cell-based; settings: Table 5-6, clinical isolate; unit assumed
[1] = tested on: Pseudomonas aeruginosa I.F.O.; experiment: MIC, plate method, standard strains; assay type: cell-based; settings: Table 3, standard strain; unit assumed
Procedure, shortened: (§1)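 Minimum inhibitory concentrations are determined by agar plate dilution using Heart infusion agar (pH 7.4). Each plate receives an inoculum of 10^4 cells.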

Klebsiella pneumoniae [2] = experiment: MIC, plate method, standard strains; assay type: cell-based; settings: Table 3, standard strain; unit assumed
Procedure, shortened: as §1

Proteus vulgaris 3027 = experiment: MIC, plate method, standard strains; assay type: cell-based; settings: Table 3, standard strain; unit assumed
Procedure, shortened: as §1

[3] = tested on: Staphylococcus aureus 209p; experiment: MIC, plate method, standard strains; assay type: cell-based; settings: Table 3, standard strain, Heart infusion agar pH 7.4; unit assumed
Procedure, shortened: as §1

Escherichia coli NIHJ = experiment: MIC, plate method, standard strains; assay type: cell-based; settings: Table 3, standard strain; unit assumed
Procedure, shortened: as §1

[4] = tested on: β-lactamase, Pseudomonas aeruginosa GN 238; experiment: Resistant activity against β-lactamase, iodometric assay; assay type: biochemical; settings: β-lactamase from Pseudomonas aeruginosa GN 238; Potassium Penicillin G = 100
Method: (3) Resistant activity against β-lactamase, Pseudomonas aerugionsa GN 238:
The resistant activity of each compound against β-lactamase was measured in the manner described below.
β-Lactamase was prepared from Pseudomonas aeruginosa GN 238. This microorganism was cultured in 100 ml of a medium containing 2 g of yeast extract, 10 g of polypeptone, 2 g of glucose, 7 g of disodium hydrogen phosphate, 2 g of potassium dihydrogen phosphate, 1.2 g of ammonium sulfate and 0.4 g of magnesium sulfate, per liter, in a 500-ml Erlenmeyer flask for 6 hrs. at 37° C. with shaking. The resulting cells were collected by centrifugation (5,000 r.p.m.×10 min.), washed three times with 0.1 M phosphate buffer (pH 7.0). Subsequently, the cells were subjected to sonication (20 KHz, 20 min.) and then centrifuged at 15,000 r.p.m. for 60 min. By using the supernatant of enzyme fluid, the resistance of each compound against β-lactamase was determined by the iodometric assay method. Each numeral shown in Table 7 is a relative activity value calculated by assuming as 100 the activity of the control Potassium Penicillin G.

Shigella sonnei = experiment: MIC against clinical isolates; assay type: cell-based; settings: Table 5-5, clinical isolate; unit assumed
Method: (§2) The minimum inhibitory concentration (MIC) was determined by the plate method disclosed in "Chemotherapy" (Japan), Vol. 16, (1968), pages 98-99. The culture medium used was a Heart infusion agar (pH 7.4). The number of the cells per plate used in the inoculum was 10^4 (10^6 cells/ml).
(§3) MIC was determined in the same manner as in the preceding paragraph (1).

Shigella flexneri = experiment: MIC against clinical isolates; assay type: cell-based; settings: Table 5-5, clinical isolate; unit assumed
Method: as §2, §3

Proteus mirabilis = experiment: MIC against clinical isolates; assay type: cell-based; settings: Table 5-6, clinical isolate; unit assumed
Staphylococcus aureus = experiment: MIC against clinical isolates; assay type: cell-based; settings: Table 5-1, clinical isolate; unit assumed
Klebsiella pneumoniae [5] = experiment: MIC against clinical isolates; assay type: cell-based; settings: Table 5-4, clinical isolate; unit assumed
Proteus rettgeri = experiment: MIC against clinical isolates; assay type: cell-based; settings: Table 5-6, clinical isolate; unit assumed

CCCCCCN1CCN(C(=O)NC(C(=O)NC2C(=O)N3C2SC(C)(C)C3C(=O)O)c2ccccc2)C(=O)C1=O (single isomer, unassigned) [Compound 46]
MIC Escherichia coli GN 3435 (Escherichia coli): < 0.4 µg/mL
MIC Escherichia coli GN 3465 (Escherichia coli): 6.25 µg/mL (≈ 10.9 µM)
MIC Escherichia coli GN 3611 (Escherichia coli): > 200 µg/mL
MIC Escherichia coli K-3 (Escherichia coli): 50 µg/mL (≈ 87.2 µM)
MIC Escherichia coli K-4 (Escherichia coli): < 0.4 µg/mL
MIC Pseudomonas aeruginosa GN (Pseudomonas aeruginosa; Table 5-3, clinical isolate, strain number not given): 12.5 µg/mL (≈ 21.8 µM)
MIC Pseudomonas aeruginosa GN 82 (Pseudomonas aeruginosa; Table 5-3, clinical isolate): 6.25 µg/mL (≈ 10.9 µM)
MIC Pseudomonas aeruginosa GN 163 (Pseudomonas aeruginosa; Table 5-3, clinical isolate): 6.25 µg/mL (≈ 10.9 µM)
MIC Pseudomonas aeruginosa GN 221 (Pseudomonas aeruginosa; Table 5-3, clinical isolate): 12.5 µg/mL (≈ 21.8 µM)
MIC Pseudomonas aeruginosa GN 1035 (Pseudomonas aeruginosa; Table 5-3, clinical isolate): 50 µg/mL (≈ 87.2 µM)
MIC Pseudomonas aeruginosa GN 1091 (Pseudomonas aeruginosa; Table 5-3, clinical isolate): 12.5 µg/mL (≈ 21.8 µM)
MIC Pseudomonas aeruginosa GN 2565 (Pseudomonas aeruginosa; Table 5-3, clinical isolate): 12.5 µg/mL (≈ 21.8 µM)
MIC Pseudomonas aeruginosa GN 2987 (Pseudomonas aeruginosa; Table 5-3, clinical isolate): 6.25 µg/mL (≈ 10.9 µM)
MIC Pseudomonas neruginosa S-1 (Pseudomonas aeruginosa): 50 µg/mL (≈ 87.2 µM)
MIC Pseudomonas neruginosa S-2 (Pseudomonas aeruginosa): 50 µg/mL (≈ 87.2 µM)
MIC Pseudomonas neruginosa S-3 (Pseudomonas aeruginosa): 50 µg/mL (≈ 87.2 µM)
MIC Pseudomonas neruginosa S-4 (Pseudomonas aeruginosa): 50 µg/mL (≈ 87.2 µM)
MIC Proteus vulgaris (Proteus vulgaris): < 0.4 µg/mL
MIC Salmonella typhi-murium SL 858 (Salmonella typhi-murium): < 0.4 µg/mL
MIC Salmonella typhi-murium SL 2136 (Salmonella typhi-murium): 50 µg/mL (≈ 87.2 µM)
MIC Proteus morganii (Proteus morganii): < 0.4 µg/mL
MIC Pseudomonas aeruginosa I.F.C [1]: 6.25 µg/mL (≈ 10.9 µM)
MIC Klebsiella pneumoniae (Klebsiella pneumoniae [2]): 0.4 µg/mL (≈ 0.697 µM)
MIC Proteus vulgaris 3027 (Proteus vulgaris 3027): 0.4 µg/mL (≈ 0.697 µM)
MIC Staphylococcus aureus 209p [3]: 0.2 µg/mL (≈ 0.349 µM)
MIC Esche--richin coil NIHJ (Escherichia coli NIHJ): < 0.1 µg/mL
Relative activity (%), resistant activity against β-lactamase [4]: 12%
MIC Shigella sonnei JS 11232 (Shigella sonnei): 12.5 µg/mL (≈ 21.8 µM)
MIC Shigella sonnei JS 11755 (Shigella sonnei): 0.79 µg/mL (≈ 1.38 µM)
MIC Shigella flexneri JS 11215 (Shigella flexneri): 6.25 µg/mL (≈ 10.9 µM)
MIC Shigella flexneri JS 11839 (Shigella flexneri): 0.79 µg/mL (≈ 1.38 µM)
MIC Proteus mirabilis (Proteus mirabilis): < 0.4 µg/mL
MIC Staphylococcus aureus F-1 (Staphylococcus aureus): 6.25 µg/mL (≈ 10.9 µM)
MIC Staphylococcus aureus F-2 (Staphylococcus aureus): 1.57 µg/mL (≈ 2.74 µM)
MIC Staphylococcus aureus F-4 (Staphylococcus aureus): 6.25 µg/mL (≈ 10.9 µM)
MIC Staphylococcus aureus F-5 (Staphylococcus aureus): > 200 µg/mL
MIC Staphylococcus aureus MS 8588 (Staphylococcus aureus): 1.57 µg/mL (≈ 2.74 µM)
MIC Staphylococcus aureus MS 8619 (Staphylococcus aureus): < 0.4 µg/mL
MIC Staphylococcus aureus MS 8684 (Staphylococcus aureus): 1.57 µg/mL (≈ 2.74 µM)
MIC Staphylococcus aureus MS 8713 (Staphylococcus aureus): 6.25 µg/mL (≈ 10.9 µM)
MIC Klebsiella pneumoniae GN 3850 (Klebsiella pneumoniae [5]): 1.57 µg/mL (≈ 2.74 µM)
MIC Klebsiella pneumoniae GN 4081 (Klebsiella pneumoniae [5]): 12.5 µg/mL (≈ 21.8 µM)
MIC Klebsiella pneumoniae GN 4117 (Klebsiella pneumoniae [5]): 12.5 µg/mL (≈ 21.8 µM)

CCCCCCCCN1CCN(C(=O)NC(C(=O)NC2C(=O)N3C2SC(C)(C)C3C(=O)O)c2ccccc2)C(=O)C1=O (single isomer, unassigned) [Compound No. 47]
MIC Escherichia coli GN 3452 (Escherichia coli): 1.57 µg/mL (≈ 2.61 µM)
MIC Escherichia coli GN 3465 (Escherichia coli): 6.25 µg/mL (≈ 10.4 µM)
MIC Escherichia coli GN 3481 (Escherichia coli): 1.57 µg/mL (≈ 2.61 µM)
MIC Escherichia coli GN 3611 (Escherichia coli): > 200 µg/mL
MIC Escherichia coli K-1 (Escherichia coli): 1.57 µg/mL (≈ 2.61 µM)
MIC Escherichia coli K-2 (Escherichia coli): 1.57 µg/mL (≈ 2.61 µM)
MIC Escherichia coli K-3 (Escherichia coli): 100 µg/mL (≈ 166 µM)
MIC Pseudomonas aeruginosa GN 376 (Pseudomonas aeruginosa; Table 5-3, clinical isolate): 50 µg/mL (≈ 83.1 µM)
MIC Pseudomonas aeruginosa GN 383 (Pseudomonas aeruginosa; Table 5-3, clinical isolate): 50 µg/mL (≈ 83.1 µM)
MIC Pseudomonas neruginosa S-1 (Pseudomonas aeruginosa): 50 µg/mL (≈ 83.1 µM)
MIC Pseudomonas neruginosa S-2 (Pseudomonas aeruginosa): 50 µg/mL (≈ 83.1 µM)
MIC Pseudomonas neruginosa S-3 (Pseudomonas aeruginosa): 50 µg/mL (≈ 83.1 µM)
MIC Pseudomonas neruginosa S-4 (Pseudomonas aeruginosa): 50 µg/mL (≈ 83.1 µM)
MIC Proteus vulgaris (Proteus vulgaris): < 0.4 µg/mL
MIC Salmonella typhi-murium SL 858 (Salmonella typhi-murium): < 0.4 µg/mL
MIC Salmonella typhi-murium SL 2136 (Salmonella typhi-murium): 50 µg/mL (≈ 83.1 µM)
MIC Proteus morganii (Proteus morganii): < 0.4 µg/mL
MIC Pseudomonas aeruginosa I.F.C [1]: 6.25 µg/mL (≈ 10.4 µM)
MIC Klebsiella pneumoniae (Klebsiella pneumoniae [2]): < 1.57 µg/mL
MIC Proteus vulgaris 3027 (Proteus vulgaris 3027): < 1.57 µg/mL
MIC Staphylococcus aureus 209p [3]: < 1.57 µg/mL
MIC Esche--richin coil NIHJ (Escherichia coli NIHJ): < 1.57 µg/mL
Relative activity (%), resistant activity against β-lactamase [4]: 1%
MIC Shigella sonnei JS 11232 (Shigella sonnei): 6.25 µg/mL (≈ 10.4 µM)
MIC Shigella sonnei JS 11755 (Shigella sonnei): 0.79 µg/mL (≈ 1.31 µM)
MIC Shigella flexneri JS 11215 (Shigella flexneri): 6.25 µg/mL (≈ 10.4 µM)
MIC Shigella flexneri JS 11839 (Shigella flexneri): 1.57 µg/mL (≈ 2.61 µM)
MIC Proteus mirabilis (Proteus mirabilis): < 0.4 µg/mL
MIC Staphylococcus aureus F-1 (Staphylococcus aureus): 6.25 µg/mL (≈ 10.4 µM)
MIC Staphylococcus aureus F-2 (Staphylococcus aureus): 1.57 µg/mL (≈ 2.61 µM)
MIC Staphylococcus aureus F-3 (Staphylococcus aureus): 1.57 µg/mL (≈ 2.61 µM)
MIC Staphylococcus aureus F-5 (Staphylococcus aureus): > 200 µg/mL
MIC Staphylococcus aureus MS 8588 (Staphylococcus aureus): 3.13 µg/mL (≈ 5.2 µM)
MIC Staphylococcus aureus MS 8596 (Staphylococcus aureus): 3.13 µg/mL (≈ 5.2 µM)
MIC Staphylococcus aureus MS 8619 (Staphylococcus aureus): < 0.4 µg/mL
MIC Staphylococcus aureus MS 8684 (Staphylococcus aureus): 3.13 µg/mL (≈ 5.2 µM)
MIC Staphylococcus aureus MS 8713 (Staphylococcus aureus): 6.25 µg/mL (≈ 10.4 µM)
MIC Klebsiella pneumoniae GN 917 (Klebsiella pneumoniae [5]): 1.57 µg/mL (≈ 2.61 µM)
MIC Klebsiella pneumoniae GN 3850 (Klebsiella pneumoniae [5]): 3.13 µg/mL (≈ 5.2 µM)

CCCCCCCCN1CCN(C(=O)N[C@@H](C(=O)N[C@@H]2C(=O)N3[C@@H]2SC(C)(C)[C@@H]3C(=O)O)c2ccccc2)C(=O)C1 [Compound 16]
MIC Escherichia coli GN 3435 (Escherichia coli): 1.57 µg/mL (≈ 2.67 µM)
MIC Escherichia coli GN 3452 (Escherichia coli): 1.57 µg/mL (≈ 2.67 µM)
MIC Escherichia coli GN 3481 (Escherichia coli): 3.13 µg/mL (≈ 5.33 µM)
MIC Escherichia coli K-1 (Escherichia coli): 1.57 µg/mL (≈ 2.67 µM)
MIC Escherichia coli K-2 (Escherichia coli): 3.13 µg/mL (≈ 5.33 µM)
MIC Escherichia coli K-4 (Escherichia coli): 3.13 µg/mL (≈ 5.33 µM)
MIC Pseudomonas aeruginosa GN 82 (Pseudomonas aeruginosa; Table 5-3, clinical isolate): 6.25 µg/mL (≈ 10.6 µM)
MIC Pseudomonas aeruginosa GN 2987 (Pseudomonas aeruginosa; Table 5-3, clinical isolate): 3.13 µg/mL (≈ 5.33 µM)
MIC Klebsiella pneumoniae (Klebsiella pneumoniae [2]): 1.57 µg/mL (≈ 2.67 µM)
MIC Proteus vulgaris 3027 (Proteus vulgaris 3027): < 1.57 µg/mL
MIC Staphylococcus aureus 209p [3]: < 1.57 µg/mL
MIC Esche--richin coil NIHJ (Escherichia coli NIHJ): < 1.57 µg/mL
MIC Shigella sonnei JS 11232 (Shigella sonnei): 6.25 µg/mL (≈ 10.6 µM)
MIC Shigella sonnei JS 11755 (Shigella sonnei): 1.57 µg/mL (≈ 2.67 µM)
MIC Shigella flexneri JS 11215 (Shigella flexneri): 6.25 µg/mL (≈ 10.6 µM)
MIC Shigella flexneri JS 11839 (Shigella flexneri): 0.79 µg/mL (≈ 1.34 µM)
MIC Staphylococcus aureus F-1 (Staphylococcus aureus): 6.25 µg/mL (≈ 10.6 µM)
MIC Staphylococcus aureus F-4 (Staphylococcus aureus): 6.25 µg/mL (≈ 10.6 µM)
MIC Staphylococcus aureus MS 8588 (Staphylococcus aureus): 3.13 µg/mL (≈ 5.33 µM)
MIC Staphylococcus aureus MS 8596 (Staphylococcus aureus): 3.13 µg/mL (≈ 5.33 µM)
MIC Staphylococcus aureus MS 8684 (Staphylococcus aureus): 3.13 µg/mL (≈ 5.33 µM)
MIC Staphylococcus aureus MS 8713 (Staphylococcus aureus): 3.13 µg/mL (≈ 5.33 µM)
MIC Proteus rettgeri (Proteus rettgeri): 6.25 µg/mL (≈ 10.6 µM)
MIC Klebsiella pneumoniae GN 3850 (Klebsiella pneumoniae [5]): 3.13 µg/mL (≈ 5.33 µM)
